Laboratory results reported in ChEMBL document CHEMBL1144812, “Small molecules with structural similarities to siderophores as novel antimicrobials against Mycobacterium tuberculosis and Yersinia pestis” (Bioorg Med Chem Lett, 2008).

Columns and labels:
[1] = tested on: Mycobacterium tuberculosis; experiment: Antimycobacterial activity against Mycobacterium tuberculosis H37Rv in presence of iron deficient GAST-D medium; format: functional, organism-based
[2] = Cytotoxicity against human HeLa cells after 24 hrs; format: cell-based; details: read-out: CD50
Yersinia pestis [3] = experiment: Antimicrobial activity against Yersinia pestis KIM6-2082.1+ in presence of iron rich PMH-D medium; format: functional, organism-based
[4] = tested on: Mycobacterium tuberculosis; experiment: Antimycobacterial activity against Mycobacterium tuberculosis H37Rv in presence of iron rich GAST-D medium; format: functional, organism-based
Yersinia pestis [5] = experiment: Antimicrobial activity against Yersinia pestis KIM6-2082.1+ in presence of iron limiting PMH-D medium; format: functional, organism-based
[6] = tested on: Mycobacterium tuberculosis; experiment: Ratio of MIC90 for Mycobacterium tuberculosis H37Rv in iron rich GAST-D medium to MIC90 for Mycobacterium tuberculosis H37Rv in presence of iron limiting GAST-D medium; format: functional
Yersinia pestis [7] = experiment: Ratio of MIC90 for Yersinia pestis KIM6-2082.1+ in iron rich PMH-D medium to MIC90 for Yersinia pestis KIM6-2082.1+ in presence of iron limiting PMH-D medium; format: functional
[8] = biological target: T1, AMP-binding enzyme family protein (Yersinia pestis, UniProt Q56950); experiment: Inhibition of Yersinia pestis YbtE assessed as incorporation of [3H]salicyl group to HMWP2 protein
T1 sequence (Q56950 whole entry): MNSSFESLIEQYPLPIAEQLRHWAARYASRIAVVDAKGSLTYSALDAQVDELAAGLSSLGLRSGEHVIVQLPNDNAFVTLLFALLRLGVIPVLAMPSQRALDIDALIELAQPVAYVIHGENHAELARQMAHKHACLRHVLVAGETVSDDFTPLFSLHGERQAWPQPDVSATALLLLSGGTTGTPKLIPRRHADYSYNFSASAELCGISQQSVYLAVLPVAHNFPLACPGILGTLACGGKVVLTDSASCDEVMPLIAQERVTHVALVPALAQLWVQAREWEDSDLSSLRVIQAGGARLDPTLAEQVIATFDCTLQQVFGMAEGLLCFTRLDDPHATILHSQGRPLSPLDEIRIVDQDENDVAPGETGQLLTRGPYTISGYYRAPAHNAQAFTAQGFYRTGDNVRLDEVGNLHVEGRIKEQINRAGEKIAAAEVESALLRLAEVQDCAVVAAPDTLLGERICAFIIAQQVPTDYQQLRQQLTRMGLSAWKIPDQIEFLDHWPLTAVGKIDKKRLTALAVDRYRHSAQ

| Structure (SMILES) | IC50 [1] | MIC90 [1] | CC50 at 24 h [2] | IC50 (Yersinia pestis [3]) | MIC90 (Yersinia pestis [3]) | IC50 [4] | MIC90 [4] | IC50 (Yersinia pestis [5]) | MIC90 (Yersinia pestis [5]) | Ratio [6] | Ratio (Yersinia pestis [7]) | IC50 [8] |
| --- | --- | --- | --- | --- | --- | --- | --- | --- | --- | --- | --- | --- |
| COc1ccc(NC(=S)N2N=C(c3ccc(O)cc3O)C[C@H]2c2ccc(O)cc2)cc1 | 63 µM | 167 µM | 62 µM | > 150 µM | > 150 µM | 250 µM | > 500 µM | 400 nM | 5 µM | >3 | >30 | > 12500 nM |
| CO[C@H]1/C=C/O[C@@]2(C)Oc3c(C)c(O)c4c(O)c(c(/C=N/N5CCN(C)CC5)c(O)c4c3C2=O)NC(=O)/C(C)=C\C=C\[C@H](C)[C@H](O)[C@@H](C)[C@@H](O)[C@@H](C)[C@H](OC(C)=O)[C@@H]1C [RIFAMPIN] |  | 0.008 µM | 190 µM |  |  |  | 0.008 µM |  |  | 1 |  |  |
| Oc1ccccc1[C@@H]1CC(c2ccccc2)=NN1C(=S)Nc1ccccc1 | 24 µM | 125 µM | 19 µM | > 19 µM | > 19 µM | 42 µM | 167 µM | > 19000 nM | > 19 µM | 1 |  | > 12500 nM |
| Oc1ccccc1C1=NN(C(=S)Nc2ccccc2)[C@H](c2ccc(Cl)cc2)C1 | ≥ 500 µM | ≥ 500 µM | 5 µM | > 5 µM | > 5 µM | ≥ 500 µM | ≥ 500 µM | 500 nM | 1 µM |  | >5 | 700 nM |
| COc1ccc(NC(=S)N2N=C(c3ccccc3O)C[C@H]2c2ccc(O)c(OC)c2)cc1 | ≥ 500 µM | ≥ 500 µM | 25 µM | > 150 µM | > 150 µM | ≥ 500 µM | ≥ 500 µM | 600 nM | 2 µM |  | >75 | 500 nM |
| Oc1ccc([C@@H]2CC(c3ccccc3O)=NN2C(=S)Nc2ccccc2)cc1 | 3 µM | 13 µM | 42 µM | > 19 µM | > 19 µM | 4 µM | 12 µM | > 19000 nM | > 19 µM | 1 |  | 400 nM |
| COc1ccc(NC(=S)N2N=C(c3ccccc3O)C[C@H]2c2ccccc2O)cc1 | 28 µM | 63 µM | 1 µM | > 2 µM | > 2 µM | 167 µM | > 250 µM | 1000 nM | 3 µM | >4 | >0.7 | 200 nM |
| COc1ccccc1NC(=S)N1N=C(c2ccccc2O)C[C@H]1c1ccccc1O | ≥ 500 µM | ≥ 500 µM | 15 µM | > 5 µM | > 5 µM | ≥ 500 µM | ≥ 500 µM | 2000 nM | 5 µM |  | >1 | 800 nM |
| Cc1ccccc1NC(=S)N1N=C(c2ccccc2O)C[C@H]1c1ccccc1O | 28 µM | 104 µM | 17 µM | > 19 µM | > 19 µM | 42 µM | > 500 µM | 2000 nM | 5 µM | >5 | >4 | 1000 nM |
| COc1cc([C@@H]2CC(c3ccc(O)cc3O)=NN2C(=S)Nc2ccccc2)ccc1O | 84 µM | 125 µM | 30 µM | > 150 µM | > 150 µM | 333 µM | > 500 µM | 600 nM | 2 µM | >4 | >75 | 700 nM |
| COc1ccccc1NC(=S)N1N=C(c2ccc(O)cc2O)C[C@H]1c1ccc(O)cc1 | 80 µM | 125 µM | 23 µM | > 150 µM | > 150 µM | 156 µM | 250 µM | 700 nM | 3 µM | 2 | >50 | 600 nM |
| Cc1ccccc1NC(=S)N1N=C(c2ccccc2O)C[C@H]1c1ccc(O)cc1 | 29 µM | 63 µM | 21 µM | > 19 µM | > 19 µM | 83 µM | 417 µM | 3000 nM | 5 µM | 7 | >4 | 700 nM |
| COc1ccc(NC(=S)N2N=C(c3ccc(O)cc3O)C[C@H]2c2ccc(O)c(OC)c2)cc1 | 125 µM | > 250 µM | 31 µM | > 9 µM | > 9 µM | 167 µM | > 250 µM | 200 nM | 1 µM |  | >9 | 1000 nM |
| Oc1ccc([C@@H]2CC(c3ccc(O)cc3O)=NN2C(=S)Nc2ccccc2)cc1 | 167 µM | > 250 µM | 63 µM | > 150 µM | > 150 µM | > 250 µM | > 250 µM | 1000 nM | 2 µM |  | >75 | 1000 nM |
| COc1cc([C@@H]2CC(c3ccccc3O)=NN2C(=S)Nc2ccccc2C)ccc1O | 101 µM | 417 µM | 15 µM | > 19 µM | > 19 µM | 96 µM | > 500 µM | 3000 nM | 9 µM | >1 | >2 | 1000 nM |
| Oc1ccccc1C1=NN(C(=S)Nc2ccccc2)[C@H](c2ccco2)C1 | 73 µM | 250 µM | 3 µM | > 9 µM | > 9 µM | 72 µM | 208 µM | 1000 nM | 2 µM | 1 | >5 | 300 nM |
| NC(=S)N1N=C(c2ccccc2O)C[C@H]1c1ccc(O)cc1 | 8 µM | 21 µM | 398 µM | > 38 µM | > 38 µM | 125 µM | 333 µM | > 38000 nM | > 38 µM | 16 |  | 500 nM |
| Oc1ccccc1C1=NN(C(=S)Nc2ccccc2)[C@H](c2ccccc2O)C1 | 29 µM | 83 µM | 3 µM | > 19 µM | > 19 µM | 65 µM | 100 µM | 700 nM | 2 µM | 1 | >10 | 600 nM |
| Oc1ccc(C2=NN(C(=S)Nc3ccccc3)[C@H](c3ccc(O)cc3)C2)cc1 | 83 µM | 125 µM | 248 µM | > 75 µM | > 75 µM | 105 µM | 250 µM | > 75000 nM | > 75 µM | 2 |  | > 12500 nM |
| COc1ccccc1NC(=S)N1N=C(c2ccccc2O)C[C@H]1c1ccc(O)cc1 | ≥ 500 µM | ≥ 500 µM | 1 µM | > 19 µM | > 19 µM | ≥ 500 µM | ≥ 500 µM | 2000 nM | 6 µM |  | >3 | 300 nM |
| COc1cc([C@@H]2CC(c3ccc(O)cc3O)=NN2C(=S)Nc2ccccc2OC)ccc1O | 51 µM | 125 µM | 26 µM | > 38 µM | > 38 µM | 55 µM | 125 µM | 17000 nM | > 38 µM | 1 |  | 200 nM |
| COc1cc([C@@H]2CC(c3ccccc3O)=NN2C(=S)Nc2ccc(C)cc2)ccc1O | ≥ 500 µM | ≥ 500 µM | 16 µM | > 19 µM | > 19 µM | ≥ 500 µM | ≥ 500 µM | 1000 nM | 2 µM |  | >10 | 500 nM |
| Cc1ccc(NC(=S)N2N=C(c3ccccc3O)C[C@H]2c2ccccc2O)cc1 | 27 µM | 63 µM | 11 µM | > 9 µM | > 9 µM | 208 µM | > 250 µM | 800 nM | 2 µM | >4 | >5 | 500 nM |
